Patent US20260001876A1, “Compounds and Their Use as PDE4 Activators” (Mironid Limited, priority 2022, published 2026)

Key:
[1] = tested on: m-IMCD3 cells expressing PDE4 long forms; test: cAMP levels in assay media of PGE2-stimulated m-IMCD3 3D cell culture; assay type: cell-based; conditions: Mus musculus, mIMCD3, compared to 100% for (DMSO + PGE2), read-out: cAMP level (% of PGE2-stimulated); for activity at 3 µM: 3 μM test compound
Protocol: (§1) HEK 293 and MDCK cells (Public Health England, Cell Culture Collections) were maintained in Dulbecco's Modified Eagle's Medium (DMEM) supplemented with 10% (v/v) fetal bovine serum (FBS) (Seralab), 2 mM L-glutamine and 100 U/mL penicillin streptomycin cocktail (ThermoFisher); termed complete media. Clonal HEK 293 cell lines were maintained in complete media supplemented with 0.6 mg/ml G418 (Enzo Life Sciences). Mouse inner medullary collecting duct (m-IMCD3) cells [American Type Culture Collection (ATCC)] were maintained in media consisting of DMEM/Hams F-12 50/50 Mix (DMEM F12; Corning) supplemented with penicillin streptomycin cocktail (100 U/mL) and FBS (10% v/v) (DMEM F12-10% FBS).
Experiment 2: Reduction of CAMP Levels in m-IMCD3 Cell Culture Treated with PDE4 Long Form Activators
Activation of intracellular PDE4 long forms leads to a reduction of both intracellular CAMP and externalised cAMP (Omar et al., PNAS 116:13320-13329, 2019). This reduction may be measured in the cell culture media supernatant of 3D cystic cell cultures, such as in the m-IMCD3 cell cyst suppression assay described in Experiment 3.
Following the completion of the m-IMCD3 cell cyst suppression assay (Experiment 3), the CAMP levels in the assay media from individual or pooled assay wells was measured using a CAMP ELISA kit (Enzo Life Sciences) or a LANCE Ultra CAMP kit (PerkinElmer) according to the manufacturer's instructions.
Treatment with PDE4 long form activators reduced CAMP levels in PGE2-stimulated m-IMCD3 cell culture.

m-IMCD3 cells = test: Inhibition of PGE2-stimulated in vitro cyst formation in m-IMCD3 cells (3D culture); assay type: cell-based; conditions: Mus musculus, mIMCD3, 144 h, mean cyst area, 100% for (DMSO + PGE2) and 0% for DMSO control, 6 days of culture; for activity at 3 µM: read-out: % Cyst area* after incubation with 3 μM test compound; for activity at 10 µM: read-out: % Cyst area* after incubation with 10 μM test compound
Protocol: as §1
Experiment 3: Inhibition of In Vitro Cyst Formation in m-IMCD3 Cells Treated with PDE4 Long Form Activators
The mouse Inner Medullary Collecting Duct cell line (m-IMCD3) spontaneously forms cystic spheroids in 3D culture with a Type 1 collagen/Matrigel extracellular matrix. This process can be stimulated with agents which raise intracellular cAMP and is used as an in vitro model for the formation of cystic structures in the kidneys of patients with ADPKD.
Rat Collagen I (Fisher Scientific) is prepared on ice by neutralising with 1M NaOH and diluting with a 2× volume of DMEM/F12+10% FBS. This is mixed 1:1.1 with ice cold Matrigel (Corning) for coating plates (coating mix), and 1:0.93 with Matrigel for cell plating (plating mix).
The assay is conducted in the wells of a 96-well plate culture dish using a total volume of 130 μL of collagen/Matrigel/DMEM F12-10% FBS suspension in growth media for each matrix plug per individual well. Initially, 30 μL of collagen/Matrigel/DMEM F12-10% FBS (coating mix) is added into the well of a 96 well plate and the collagen is set to a gel by incubating at 37° C. for at least 15 minutes. A second layer of 100 μL collagen/Matrigel suspension (plating mix) containing m-IMCD3 cells (2.75×10^6 m-IMCD3 cells per 96-well plate) is layered over the coating mix and the collagen/Matrigel/cell mix again set to a gel by incubating at 37° C. Cell cultures are maintained at 37° C. in an atmosphere of 5% CO2, 95% air.
Between 18 and 24 h after plating, test compound(s) as DMSO stock solutions [0.1% (v/v) final DMSO concentration] and PGE2 (100 nM final concentration) in DMEM F12-10% FBS are added in quadruplicate wells per condition. Media, together with the test compound and PGE2 are replenished after 2 or 3 days. After 6 days of culture z stack images of the wells are captured using the Nikon Eclipse Ti2-E microscope. Nikon General Analysis software is used to measure the following parameters in each well: the mean cyst area, the number of cysts, and the total cyst area.
PDE4 long form activators inhibited in vitro cyst formation in m-IMCD3 cells. Data are shown in Table 4 as mean cyst area (%), compared to 100% for (DMSO+PGE2) and 0% for DMSO control.

O=C(c1ccc(F)cc1)N1CCc2nc(N3CCNCC3)ncc2C1 [Example 147, (4-fluorophenyl)(2-(piperazin-1-yl)-7,8-dihydropyrido[4,3-d]pyrimidin-6(5H)-yl)methanone]
activity at 3 µM [1]: 40%
activity at 3 µM (m-IMCD3 cells): 4%

O=C(Cc1ccccc1)N1CCc2nc(N3CCNCC3)ncc2C1 [Example 134, 2-phenyl-1-(2-(piperazin-1-yl)-7,8-dihydropyrido[4,3-d]pyrimidin-6(5H)-yl)ethan-1-one]
activity at 3 µM [1]: 55%
activity at 3 µM (m-IMCD3 cells): 7%

O=S(=O)(Cc1ccccc1)N1CCc2nc(N3C4CCC3CNC4)ccc2C1 [Example 162, 6-(benzylsulfonyl)-2-(3,8-diazabicyclo[3.2.1]octan-8-yl)-5,6,7,8-tetrahydro-1,6-naphthyridine]
activity at 3 µM [1]: 38%
activity at 3 µM (m-IMCD3 cells): -3%

O=C(CC1CCCC1)N1CCc2nc(N3C[C@H]4C[C@@H]3CN4)ccc2C1 [Example 156, 1-(2-((1R,4R)-2,5-diazabicyclo[2.2.1]heptan-2-yl)-7,8-dihydro-1,6-naphthyridin-6(5H)-yl)-2-cyclopentylethan-1-one]
activity at 3 µM [1]: 49%
activity at 3 µM (m-IMCD3 cells): 4%

CC1(CC(=O)N2Cc3ccc(N4C5CCC4CNC5)nc3C2)CCCC1 [Example 129, 1-(2-(3,8-diazabicyclo[3.2.1]octan-8-yl)-5,7-dihydro-6H-pyrrolo[3,4-b]pyridin-6-yl)-2-(1-methylcyclopentyl)ethan-1-one]
activity at 3 µM [1]: 44%
activity at 10 µM (m-IMCD3 cells): 2%

CCN1CCN(c2ccc3c(n2)CCN(C(=O)CC(C)(C)C)C3)CC1 [Example 150, 1-(2-(4-ethylpiperazin-1-yl)-7,8-dihydro-1,6-naphthyridin-6(5H)-yl)-3,3-dimethylbutan-1-one]
activity at 3 µM [1]: 49%
activity at 3 µM (m-IMCD3 cells): -1%

O=C(CC1CCC(F)(F)CC1)N1CCc2nc(N3CCNCC3)ccc2C1 [Example 111, 2-(4,4-difluorocyclohexyl)-1-(2-(piperazin-1-yl)-7,8-dihydro-1,6-naphthyridin-6(5H)-yl)ethan-1-one]
activity at 10 µM ([1]; 10 μM test compound): 38%
activity at 10 µM (m-IMCD3 cells): -3%

O=C(CC1CCCC1)N1CCc2nc(N3C[C@@H]4C[C@H]3CN4)ccc2C1 [Example 155, 1-(2-((1S,4S)-2,5-diazabicyclo[2.2.1]heptan-2-yl)-7,8-dihydro-1,6-naphthyridin-6(5H)-yl)-2-cyclopentylethan-1-one]
activity at 3 µM [1]: 63%

CCN1CC2CCC(C1)N2c1ccc2c(n1)CCN(C(=O)N[C@@H]1CCOc3ccccc31)C2 [Example 170, N—((R)-chroman-4-yl)-2-(3-ethyl-3,8-diazabicyclo[3.2.1]octan-8-yl)-7,8-dihydro-1,6-naphthyridine-6(5H)-carboxamide]
activity at 3 µM (m-IMCD3 cells): 23%

CN(C(=O)N1CCc2nc(N3C4CCC3CNC4)ccc2C1)C1CCCC1 [Example 63, 2-(3,8-diazabicyclo[3.2.1]octan-8-yl)-N-cyclopentyl-N-methyl-7,8-dihydro-1,6-naphthyridine-6(5H)-carboxamide]
activity at 10 µM (m-IMCD3 cells): 2%

O=C(COc1ccc(F)cc1)N1CCc2nc(N3CCNCC3)ccc2C1 [Example 180, 2-(4-fluorophenoxy)-1-(2-(piperazin-1-yl)-7,8-dihydro-1,6-naphthyridin-6(5H)-yl)ethan-1-one]
activity at 3 µM (m-IMCD3 cells): 11%

CCN(C(=O)N1CCc2nc(N3C4CCC3CNC4)ccc2C1)C1CCCC1 [Example 64, 2-(3,8-diazabicyclo[3.2.1]octan-8-yl)-N-cyclopentyl-N-ethyl-7,8-dihydro-1,6-naphthyridine-6(5H)-carboxamide]
activity at 10 µM (m-IMCD3 cells): 0%

O=C(CC1CCCC1)N1CCc2cc(N3C4CCC3CNC4)ncc2C1 [Example 178, 1-(6-(3,8-diazabicyclo[3.2.1]octan-8-yl)-3,4-dihydro-2,7-naphthyridin-2 (1H)-yl)-2-cyclopentylethan-1-one]
activity at 3 µM (m-IMCD3 cells): 1%

N#Cc1ccc(CC(=O)N2CCc3nc(N4CC5CCC(C4)N5)ncc3C2)cc1 [Example 138, 4-(2-(2-(3,8-diazabicyclo[3.2.1]octan-3-yl)-7,8-dihydropyrido[4,3-d]pyrimidin-6(5H)-yl)-2-oxoethyl)benzonitrile]
activity at 3 µM (m-IMCD3 cells): 0%

CCN1CC2CCC(C1)N2c1ccc2c(n1)CCN(C(=O)COc1ccc(F)cc1)C2 [Example 171, 1-(2-(3-ethyl-3,8-diazabicyclo[3.2.1]octan-8-yl)-7,8-dihydro-1,6-naphthyridin-6(5H)-yl)-2-(4-fluorophenoxy)ethan-1-one]
activity at 3 µM (m-IMCD3 cells): 4%

O=C(CC1CCCC1)N1CCc2nc(N3CCNCC3)ncc2C1 [Example 143, 2-cyclopentyl-1-(2-(piperazin-1-yl)-7,8-dihydropyrido[4,3-d]pyrimidin-6(5H)-yl)ethan-1-one]
activity at 3 µM (m-IMCD3 cells): 22%

CCCN1CC2CCC(C1)N2c1ccc2c(n1)CCN(C(=O)COc1ccc(F)cc1)C2 [Example 172, 2-(4-fluorophenoxy)-1-(2-(3-propyl-3,8-diazabicyclo[3.2.1]octan-8-yl)-7,8-dihydro-1,6-naphthyridin-6(5H)-yl)ethan-1-one]
activity at 3 µM (m-IMCD3 cells): 6%

O=C(Cc1ccccc1)N1CCc2nc(N3C4CCC3CNC4)ncc2C1 [Example 133, 1-(2-(3,8-diazabicyclo[3.2.1]octan-8-yl)-7,8-dihydropyrido[4,3-d]pyrimidin-6(5H)-yl)-2-phenylethan-1-one]
activity at 3 µM (m-IMCD3 cells): -5%

O=C(CC1CCCC1)N1CCc2cnc(N3C4CCC3CNC4)cc2C1 [Example 179, 1-(7-(3,8-diazabicyclo[3.2.1]octan-8-yl)-3,4-dihydro-2,6-naphthyridin-2 (1H)-yl)-2-cyclopentylethan-1-one]
activity at 3 µM (m-IMCD3 cells): 1%

O=C(COc1ccccc1)N1CCc2nc(N3C4CCC3CNC4)ccc2C1 [Example 41, 1-(2-(3,8-diazabicyclo[3.2.1]octan-8-yl)-7,8-dihydro-1,6-naphthyridin-6(5H)-yl)-2-phenoxyethan-1-one]
activity at 10 µM (m-IMCD3 cells): 4%

CCN1CCN(c2ccc3c(n2)CCN(C(=O)N[C@H]2CCOc4ccccc42)C3)CC1 [Example 169, (S)—N-(chroman-4-yl)-2-(4-ethylpiperazin-1-yl)-7,8-dihydro-1,6-naphthyridine-6(5H)-carboxamide]
activity at 3 µM (m-IMCD3 cells): -4%

O=C(N1CCCC1)N1Cc2ccc(N3C4CCC3CNC4)nc2C1 [Example 95, (2-(3,8-diazabicyclo[3.2.1]octan-8-yl)-5,7-dihydro-6H-pyrrolo[3,4-b]pyridin-6-yl)(pyrrolidin-1-yl)methanone]
activity at 10 µM (m-IMCD3 cells): -2%

O=C(N[C@H]1CCOc2ccccc21)N1CCc2nc(N3CCNCC3)ccc2C1 [Example 168, (S)—N-(chroman-4-yl)-2-(piperazin-1-yl)-7,8-dihydro-1,6-naphthyridine-6(5H)-carboxamide]
activity at 3 µM (m-IMCD3 cells): 4%

O=C(CC1CCCC1)N1CCc2nc(N3C4CCC3CNC4)ncc2C1 [Example 142, 1-(2-(3,8-diazabicyclo[3.2.1]octan-8-yl)-7,8-dihydropyrido[4,3-d]pyrimidin-6(5H)-yl)-2-cyclopentylethan-1-one]
activity at 3 µM (m-IMCD3 cells): 26%
